According to patent publication US8980888B2, “Pyrazole derivative” (Mochida Pharmaceutical Co., Ltd., priority 2013, dated 2015):

Target: T1, Human PDE10 (Homo sapiens, UniProt Q9Y233)
T1 construct: purchased BPA Bioscience (so in the source)
Assay: Human PDE10 inhibitory effect (IMAP TR-FRET enzyme inhibition assay)
Assay type: biochemical
Details: PDE10 inhibitory activity, cAMP substrate
Description: (Evaluation of Enzyme Inhibitory Activity: Human PDE10 Inhibitory Effect)
IMAP TR-FRET Phosphodiersterase Evaluation Assay Kit (Molecular Device) was used for the measurement. Ten μL of a diluted test compound having each concentration and 5 μL of the enzyme PDE10 (BPA Bioscience) that had been diluted to 2 ng/mL with 1×IMAP Reaction Buffer (prepared with 5× included with the kit, 10 mM Tris-HCl, pH=7.2, 10 mM MgCl2, 0.05% NaN3, and 0.1% BSA) containing 0.1% BSA were added to a 384-well plate (Corning). The obtained mixture was then pre-incubated at room temperature for 5 minutes. Thereafter, 5 μL of cAMP substrate solution which was included with the kit and diluted to 400 nM with 1×IMAP Reaction Buffer containing 0.1% BSA, was added to the reaction solution, and the obtained mixture was reacted at room temperature for 60 minutes. Thereafter, 60 μL of an IMAP TR-FRET Binding solution included with the kit was further added to the reaction solution, and the obtained mixture was then left for 3 hours or more. Subsequently, using ARVO SX (PerkinElmer), the fluorescent intensity of Terbium (Emission=490 nm) and TR-FRET (Emission=520 nm) in the reaction solution were measured at an excitation wavelength of 340 nm, so as to calculate the amount of the generated 5′-AMP. The count of a well to which a solvent had been added instead of the test compound was set at 0%, and the count of a well to which the enzyme PDE10 had not been added was set at 100%. Thus, the inhibitory activity of each test compound was calculated.
The PDE10 inhibitory activity of the test compound was indicated with an IC50 value. […] The test compounds are shown in Table 3 (Table 3-1 and Table 3-2).

T1 sequence (Q9Y233 whole entry): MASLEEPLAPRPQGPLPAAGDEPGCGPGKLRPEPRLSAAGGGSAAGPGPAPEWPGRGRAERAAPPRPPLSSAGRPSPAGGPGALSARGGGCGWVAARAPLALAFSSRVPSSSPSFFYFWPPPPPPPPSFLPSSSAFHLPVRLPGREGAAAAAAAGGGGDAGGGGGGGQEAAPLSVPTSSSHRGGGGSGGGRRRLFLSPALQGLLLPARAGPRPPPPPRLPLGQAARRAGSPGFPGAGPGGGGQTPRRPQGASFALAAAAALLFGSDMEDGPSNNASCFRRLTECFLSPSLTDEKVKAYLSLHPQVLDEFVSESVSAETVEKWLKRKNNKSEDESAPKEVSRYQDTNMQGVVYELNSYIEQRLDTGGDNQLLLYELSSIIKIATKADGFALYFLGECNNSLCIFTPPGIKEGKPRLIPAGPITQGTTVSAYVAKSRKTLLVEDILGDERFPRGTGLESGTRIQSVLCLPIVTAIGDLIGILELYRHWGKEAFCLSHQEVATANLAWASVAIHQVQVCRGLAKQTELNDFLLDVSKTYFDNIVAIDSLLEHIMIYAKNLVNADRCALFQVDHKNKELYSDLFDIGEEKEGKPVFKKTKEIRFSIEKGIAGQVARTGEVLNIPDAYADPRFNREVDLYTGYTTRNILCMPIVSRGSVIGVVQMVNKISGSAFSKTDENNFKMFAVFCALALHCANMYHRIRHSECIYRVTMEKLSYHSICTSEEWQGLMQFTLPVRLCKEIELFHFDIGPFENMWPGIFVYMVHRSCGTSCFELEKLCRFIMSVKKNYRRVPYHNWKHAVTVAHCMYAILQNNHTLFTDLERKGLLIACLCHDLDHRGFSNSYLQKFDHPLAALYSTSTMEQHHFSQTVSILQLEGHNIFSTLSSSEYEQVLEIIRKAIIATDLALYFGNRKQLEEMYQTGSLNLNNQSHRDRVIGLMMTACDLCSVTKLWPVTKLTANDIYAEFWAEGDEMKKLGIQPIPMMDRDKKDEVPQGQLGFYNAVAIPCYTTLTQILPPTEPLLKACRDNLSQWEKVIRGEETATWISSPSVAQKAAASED

IC50 [nM]	SMILES
< 5	Cc1csc(-c2cnn(C)c2C(=O)NC2CCn3cc(-c4ccccc4)nc3C2)n1 (stereo not shown) [Example 2.1, 1-methyl-4-(4-methylthiazol-2-yl)-N-(2-phenyl-5,6,7,8-tetrahydroimidazo[1,2-a]pyridin-7-yl)-1H-pyrazole-5-carboxamide]
< 5	Cc1nc(-c2cnn(C)c2C(=O)NC2CCn3cc(-c4ccccc4)nc3C2)sc1C (stereo not shown) [Example 2.2, 4-(4,5-dimethylthiazol-2-yl)-1-methyl-N-(2-phenyl-5,6,7,8-tetrahydroimidazo[1,2-a]pyridin-7-yl)-1H-pyrazole-5-carboxamide]
< 5	Cc1sc(-c2cnn(C)c2C(=O)NC2CCn3cc(-c4cccc(F)c4)nc3C2)nc1C(F)F (stereo not shown) [Example 2.7, 4-(4-(difluoromethyl)-5-methylthiazol-2-yl)-N-(2-(3-fluorophenyl)-5,6,7,8-tetrahydroimidazo[1,2-a]pyridin-7-yl)-1-methyl-1H-pyrazole-5-carboxamide]
< 5	Cc1nnc(-c2cnn(C)c2C(=O)NC2CCn3cc(-c4ccccc4)nc3C2)s1 (stereo not shown) [Example 2.10, 1-methyl-4-(5-methyl-1,3,4-thiadiazol-2-yl)-N-(2-phenyl-5,6,7,8-tetrahydroimidazo[1,2-a]pyridin-7-yl)-1H-pyrazole-5-carboxamide]
5 to 100	Cc1ccnc(-c2cnn(C)c2C(=O)NC2CCn3cc(-c4ccccc4)nc3C2)n1 (stereo not shown) [Example 2.16, 1-methyl-4-(4-methylpyrimidin-2-yl)-N-(2-phenyl-5,6,7,8-tetrahydroimidazo[1,2-a]pyridin-7-yl)-1H-pyrazole-5-carboxamide]
5 to 100	Cn1cnc(-c2cnn(C)c2C(=O)NC2CCn3cc(-c4ccccc4)nc3C2)c1 (stereo not shown) [Example 2.17, 1-methyl-4-(1-methyl-1H-imidazol-4-yl)-N-(2-phenyl-5,6,7,8-tetrahydroimidazo[1,2-a]pyridin-7-yl)-1H-pyrazole-5-carboxamide]
5 to 100	Cc1nnc(-c2cnn(C)c2C(=O)NC2CCn3cc(-c4cc(F)ccc4F)nc3C2)s1 (stereo not shown) [Example 2.18, N-(2-(2,5-difluorophenyl)-5,6,7,8-tetrahydroimidazo[1,2-a]pyridin-7-yl)-1-methyl-4-(5-methyl-1,3,4-thiadiazol-2-yl)-1H-pyrazole-5-carboxamide]
< 5	Cn1ncc(-c2nc(C(F)F)cs2)c1C(=O)NC1CCn2cc(-c3cccc(F)c3)nc2C1 (stereo not shown) [Example 2.20, 4-(4-(difluoromethyl)thiazol-2-yl)-N-(2-(3-fluorophenyl)-5,6,7,8-tetrahydroimidazo[1,2-a]pyridin-7-yl)-1-methyl-1H-pyrazole-5-carboxamide]
5 to 100	Cc1ccc(-c2cnn(C)c2C(=O)NC2CCn3cc(-c4ccccc4)nc3C2)nc1 (stereo not shown) [Example 2.21, 1-methyl-4-(5-methylpyridin-2-yl)-N-(2-phenyl-5,6,7,8-tetrahydroimidazo[1,2-a]pyridin-7-yl)-1H-pyrazole-5-carboxamide]
5 to 100	Cc1ccnc(-c2cnn(C)c2C(=O)NC2CCn3cc(-c4cccc(F)c4)nc3C2)n1 (stereo not shown) [Example 2.23, N-(2-(3-fluorophenyl)-5,6,7,8-tetrahydroimidazo[1,2-a]pyridin-7-yl)-1-methyl-4-(4-methylpyrimidin-2-yl)-1H-pyrazole-5-carboxamide]
5 to 100	Cc1cncc(-c2cnn(C)c2C(=O)NC2CCn3cc(-c4cccc(F)c4)nc3C2)n1 (stereo not shown) [Example 2.24, N-(2-(3-fluorophenyl)-5,6,7,8-tetrahydroimidazo[1,2-a]pyridin-7-yl)-1-methyl-4-(6-methylpyrazin-2-yl)-1H-pyrazole-5-carboxamide]
5 to 100	Cn1ncc(-c2cscn2)c1C(=O)NC1CCn2cc(-c3ccccc3)nc2C1 (stereo not shown) [Example 2.25, 1-methyl-N-(2-phenyl-5,6,7,8-tetrahydroimidazo[1,2-a]pyridin-7-yl)-4-(thiazol-4-yl)-1H-pyrazole-5-carboxamide]
5 to 100	Cn1ncc(-c2nccs2)c1C(=O)NC1CCn2cc(-c3ccccc3)nc2C1 (stereo not shown) [Example 2.26, 1-methyl-N-(2-phenyl-5,6,7,8-tetrahydroimidazo[1,2-a]pyridin-7-yl)-4-(thiazol-2-yl)-1H-pyrazole-5-carboxamide]
5 to 100	Cn1ncc(-c2nc(C(C)(C)C)cs2)c1C(=O)NC1CCn2cc(-c3ccccc3)nc2C1 (stereo not shown) [Example 2.27, 4-(4-(tert-butyl)thiazol-2-yl)-1-methyl-N-(2-phenyl-5,6,7,8-tetrahydroimidazo[1,2-a]pyridin-7-yl)-1H-pyrazole-5-carboxamide]
< 5	Cc1cccnc1-c1cnn(C)c1C(=O)Nc1cc2nc(-c3ccccc3)nn2cc1F [Example 3.1, N-(6-fluoro-2-phenyl-[1,2,4]triazolo[1,5-a]pyridin-7-yl)-1-methyl-4-(3-methylpyridin-2-yl)-1H-pyrazole-5-carboxamide]
< 5	Cc1cnc(-c2cnn(C)c2C(=O)Nc2cc3nc(-c4ccccc4)nn3cc2F)cn1 [Example 3.2, N-(6-fluoro-2-phenyl-[1,2,4]triazolo[1,5-a]pyridin-7-yl)-1-methyl-4-(5-methylpyrazin-2-yl)-1H-pyrazole-5-carboxamide]
< 5	Cc1cccc(-c2cnn(C)c2C(=O)Nc2cc3nc(-c4ccccc4)nn3cc2F)n1 [Example 3.3, N-(6-fluoro-2-phenyl-[1,2,4]triazolo[1,5-a]pyridin-7-yl)-1-methyl-4-(6-methylpyridin-2-yl)-1H-pyrazole-5-carboxamide]
< 5	Cn1ncc(-c2cc(F)ccn2)c1C(=O)Nc1cc2nc(-c3ccccc3)nn2cc1F [Example 3.4, N-(6-fluoro-2-phenyl-[1,2,4]triazolo[1,5-a]pyridin-7-yl)-4-(4-fluoropyridin-2-yl)-1-methyl-1H-pyrazole-5-carboxamide]
< 5	Cc1ccnc(-c2cnn(C)c2C(=O)Nc2cc3nc(-c4ccccc4)nn3cc2F)c1 [Example 3.5, N-(6-fluoro-2-phenyl-[1,2,4]triazolo[1,5-a]pyridin-7-yl)-1-methyl-4-(4-methylpyridin-2-yl)-1H-pyrazole-5-carboxamide]
< 5	Cn1ncc(-c2cccc(C(F)(F)F)n2)c1C(=O)Nc1cc2nc(-c3ccccc3)nn2cc1F [Example 3.10, N-(6-fluoro-2-phenyl-[1,2,4]triazolo[1,5-a]pyridin-7-yl)-1-methyl-4-(6-(trifluoromethyl)pyridin-2-yl)-1H-pyrazole-5-carboxamide]
< 5	Cn1ncc(-c2nc(C(F)F)c(Cl)s2)c1C(=O)Nc1ccn2nc(-c3ccccc3)nc2c1 [Example 3.20, 4-(5-chloro-4-(difluoromethyl)thiazol-2-yl)-1-methyl-N-(2-phenyl-[1,2,4]triazolo[1,5-a]pyridin-7-yl)-1H-pyrazole-5-carboxamide]
5 to 100	COc1ccccc1-c1nc2cc(NC(=O)c3c(-c4nc(C(F)F)c(Cl)s4)cnn3C)cc(Cl)n2n1 [Example 3.21, N-(5-chloro-2-(2-methoxyphenyl)-[1,2,4]triazolo[1,5-a]pyridin-7-yl)-4-(5-chloro-4-(difluoromethyl)thiazol-2-yl)-1-methy 1-1H-pyrazole-5-carboxamide]
< 5	Cc1cc(-c2cnn(C)c2C(=O)Nc2cc3nc(-c4ccccc4)nn3cc2F)nc(C)n1 [Example 3.30, 4-(2,6-dimethylpyrimidin-4-yl)-N-(6-fluoro-2-phenyl-[1,2,4]triazolo[1,5-a]pyridin-7-yl)-1-methyl-1H-pyrazole-5-carboxamide]
< 5	COc1cc(-c2cnn(C)c2C(=O)Nc2cc3nc(-c4ccccc4)nn3cc2F)nc(OC)n1 [Example 3.40, 4-(2,6-dimethoxypyrimidin-4-yl)-N-(6-fluoro-2-phenyl-[1,2,4]triazolo[1,5-a]pyridin-7-yl)-1-methyl-1H-pyrazole-5-carboxamide]
< 5	Cc1ncc(C)c(-c2cnn(C)c2C(=O)Nc2cc3nc(-c4ccccc4C)nn3cc2F)n1 [Example 3.50, 4-(2,5-dimethylpyrimidin-4-yl)-N-(6-fluoro-2-(o-tolyl)-[1,2,4]triazolo[1,5-a]pyridin-7-yl)-1-methyl-1H-pyrazole-5-carboxamide]
< 5	C[C@H]1CCCN1c1nc2cc(NC(=O)c3c(-c4nc(C(F)F)cs4)cnn3C)ccn2n1 [Example 4.1, (S)-4-(4-(difluoromethyl)thiazol-2-yl)-1-methyl-N-(2-(2-methylpyrrolidin-1-yl)-[1,2,4]triazolo[1,5-a]pyridin-7-yl)-1H-pyrazole-5-carboxamide]
< 5	C[C@H]1CCCN1c1nc2cc(NC(=O)c3c(-c4nc(C(F)F)c(Cl)s4)cnn3C)ccn2n1 [Example 4.2, (S)-4-(5-chloro-4-(difluoromethyl)thiazol-2-yl)-1-methyl-N-(2-(2-methylpyrrolidin-1-yl)-[1,2,4]triazolo[1,5-a]pyridin-7-yl)-1H-pyrazole-5-carboxamide]
< 5	C[C@H]1CCCN1c1nc2cc(NC(=O)c3c(-c4cccc(C(F)(F)F)n4)cnn3C)ccn2n1 [Example 4.3, (S)-1-methyl-N-(2-(2-methylpyrrolidin-1-yl)-[1,2,4]triazolo[1,5-a]pyridin-7-yl)-4-(6-(trifluoromethyl)pyridin-2-yl)-1H-pyrazole-5-carboxamide]
